Tests used:
CEP250 [1] = biological target: T1, CEP250 (Homo sapiens, UniProt Q9BV73); assay: SPR binding of CEP250 (analyte) to immobilized FKBP12-F2 binary complex
T1 construct: CEP25011.4 (residues 2134-2231) (in-house); made in house
Procedure: Experiments are performed at 25° C.

CEP250 [2] = biological target: T1, CEP250; assay: ITC binding of FKBP12-compound binary complexes to CEP250; conditions: FKBP12 10 μM + ligand 20 μM, 298 K
Procedure: This protocol utilizes Isothermal Titration calorimetry (ITC) to directly measure the heat change associated with binding of FKBP12-F2 and FKBP12-F11 binary complexes to CEP250. Measurement of the heat change allows accurate determination of association constants (Ka), reaction stoichiometry (N), and the change in binding enthalpy (ΔH).
FKBP12 stock solution is diluted to 10 μM in assay buffer (1% DMSO final). Compound is added to FKBP12 to 20 μM (1% DMSO final), and binary complex is filled into the reaction cell of the ITC device after 5-10 min pre-incubation time. […] A control experiment in the absence of compound is also run to determine the heat associated with operational artifacts and the dilution of titrant as it is injected from the syringe into the reaction cell.
Data were fitted with the Origin ITC200 software according to the following procedure: • 1) Read raw data • 2) In “mRawITC”: adjust integration peaks and baseline, integrate all peaks • 3) In “Delta H”—data control: remove bad data (injection #1 and other artifacts), subtract straight line (background subtraction) • 4) In “Delta H”—model fitting: select one set of sites model, perform fitting with Levenberg-Marquardt algorithm until Chi Square is not reduced further, finish with “done” (parameters N, Ka and ΔH are calculated based on fitting)

HeLa-FKBP12 cells = assay: Biosensor cell permeability assay, FKBP binding compounds; format: cell-based; conditions: 72 hrs
Procedure: This protocol utilizes a modified FKBP or cyclophilin destabilizing mutant to determine the bioactivity of FKBP binding compounds or cyclophilin binding compounds in whole cell assay.
Plate HeLa-FKBP12 cells (for FKBP binding compounds) or HeLa-Cyclophilin A cells (for cyclophilin binding compounds) and seed overnight at 5 k/well (approximately ˜18 hrs.). Using a multi-channel pipet, take out the old media and add ˜125 ul of new media with compounds. Compounds are diluted using DMEM without Phenol Red, 10% FBS, 1× Sodium Pyruvate, 1× Glutamax. Add 125 ul of media with compound per well. Cells are treated with compounds at concentration: 30, 10, 3.33, 1.11, 0.37, 0.12, 0.04 and 0.013 uM. Time points are taken at 72 hrs and plate read using plate reader with excitation/emission: 575/620.
Cell binding/permeability is calculated in fold-change (Total RFU of treated samples/total RFU of DMSO treated samples or total RFU above background (Total RFU minus total RFU of DMSO treated samples).

FKBP12 [3] = biological target: T2, FKBP12 (Homo sapiens, UniProt P62942); assay: AlphaLISA: inhibition of binding of biotinylated FK506 to FLAG tagged FKBP12; design: made in house
Procedure: This protocol utilizes Perkin Elmers AlphaLISA technology platform to detect FKBP binders by measuring the inhibition of binding of biotinylated FK506 to FLAG tagged FKBP12.
Add 20 uL of 12.5 nM FKBP-FLAG working stock to each well of the 96-well plate. Add 1 uL of test compound (100% DMSO) to each well of the plate using the Janus MTD head and P20 tips (except control wells). Add 1 uL of DMSO to negative control wells and 1 uL of 50 uM FK506 solution to positive control wells. In the dark, add 20 uL of combined Donor/Acceptor beads to each well. Incubate in the dark for 30 minutes at room temperature. In the dark, add 10 uL of 5 nM biotinylated FK506 working stock to each well. Incubate in the dark for 60 minutes at room temperature. Protect plate from light until reading on Biotek Synergy2 Plate Reader; Alphalisa 96-well protocol (680 excitation/615 emission).

FKBP12 [4] = biological target: T2, FKBP12
Procedure: This protocol utilizes Surface Plasmon Resonance (SPR) as a method to determine kinetics (KD, Ka, Kd) for the binding of compound (analyte) to immobilized FKBP12 (ligand).
Experiments are performed at 25° C. Stock solution of 12×HIS tagged FKBP12 is diluted to 100 nM in assay buffer (1% DMSO final). Approximately 500-600 RU of FKBP12 is immobilized on one of two flow cells of an activated NTA chip. The second flow cell is not activated as a reference for non-specific interaction of the analyte to the sensor chip. Various concentrations of compound (1 nM-1 μM range), serially diluted into the same assay buffer (1% DMSO final), are injected onto the FKBP12 surface and reference surface at a flow rate of 10 μl/min. The surface is regenerated between analyte injections with 350 mM EDTA.
The BiaEvaluation software program is used for data fitting. All data is reference subtracted against both the reference flow cell and a buffer injection. For kinetic analyses, data is locally fit to a 1:1 interaction model.
Experiments are performed at 25° C. Stock solution of 12×HIS tagged FKBP12 is diluted to 100 nM in assay buffer (1% DMSO final). Approximately 500-600 RU of FKBP12 is immobilized on one of two flow cells of an activated NTA chip. The second flow cell is not activated as a reference for non-specific interaction of the analyte to the sensor chip.

CEP250 [5] = biological target: T3, CEP250 (Homo sapiens, UniProt P62942+Q9BV73); assay: Crystal structure analysis of FKBP12-compound-CEP250 ternary complexes; conditions: FKBP12-compound-CEP25011.4 crystal structure
T3 construct: CEP25011.4 (residues 2134-2231) (in-house); made in house
From the text: As used herein, the term “buried surface area” refers to the surface area of a protein or a complex that is not exposed to solvent. Buried surface area may be determined by methods known in the art including by calculating inaccessibility to solvent. Inaccessibility to solvent may be calculated computationally with a rolling probe of 1.4 A, using a program such as PDBePISA release version 1.48 (http://www.ebi.ac.uk/pdbe/pisa/).
This protocol describes the crystallization and structure determination method for structures of FKBP12-Compound 2-CEP250 and FKBP12-F11-CEP250 ternary complexes.
A 3:1 molar excess of FKBP12-F2 or FKBP12-F11 binary complex is added to CEP25011.4 and incubated at 4° C. overnight to complete ternary complex formation. Pure ternary complex is isolated by gel filtration purification on a Superdex 200 column in 12.5 mM HEPES pH 7.4, 75 mM NaCl. Purified complex (at 10-20 mg/ml) is subjected to crystallization at 22° C. using sitting drop vapor diffusion. FKBP12-F2-CEP250 crystals grow in a well solution containing 0.2 M sodium malonate, 0.1 M HEPES 7.0, 21% PEG 3350. FKBP12-F11-CEP250 crystals grow in a well solution containing 0.1 M Tris pH 8.5, 0.2 M trimethylamine N-oxide, 22-24% PEG2000 MME. For data collection crystals are transferred to a solution containing mother liquor supplemented with 20-25% glycerol, and then frozen in liquid nitrogen. Diffraction datasets are collected at the Advanced Photon Source (APS) and processed with the HKL program. Molecular replacement solutions are obtained using the program PHASER in the CCP4 suite, using the published structure of FKBP12 (PDB-ID 1FKD) as a search model. Subsequent model building and refinement are performed according to standard protocols with the software packages CCP4 and COOT.

[6] = FKBP12/F2 complex to CEP25011.4 (residues 2134-2231)
[7] = FKBP12/F2 complex to CEP25029.2 (residues 1982-2231)

T3 sequence (Q9BV73 2134-2231): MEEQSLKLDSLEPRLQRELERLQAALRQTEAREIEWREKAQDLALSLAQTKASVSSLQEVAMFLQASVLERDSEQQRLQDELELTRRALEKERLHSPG
T3 sequence (P62942 whole entry, the tested form may be a part): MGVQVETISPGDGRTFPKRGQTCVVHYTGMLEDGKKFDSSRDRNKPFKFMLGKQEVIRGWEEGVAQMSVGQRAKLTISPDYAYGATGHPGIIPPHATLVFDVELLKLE
T2 sequence (P62942 whole entry, species assumed): as the sequence (P62942 whole entry, the tested form may be a part) above

Structure (SMILES)	IC50 (HeLa-FKBP12 cells)	IC50 (FKBP12 [3])	Kd (FKBP12 [4])	other results
CC[C@H](Cc1ccccc1)[C@@H]1/C=C/C/C=C/C[C@@H](C)[C@H](O)[C@@H](C)[C@@H]2CC[C@@H](C)C(=O)C(O)(O2)C(=O)N2CCCC[C@H]2C(=O)O1 [F2, (2S)-1-((4R,7S)-7-((2R,3S,4R,6E,9E,11R,12R)-12-benzyl-3,11-dihydroxy-4-methyltetradeca-6,9-dien-2-yl)-2-hydroxy-4-methyl-3-oxooxepane-2-carbonyl)piperidine-2-carboxylic acid C-11 lactone]	–	–	–	dissociation rate constant (koff) (CEP250 [1]; [6]): 3.09×10^−3 1/S; dissociation rate constant (koff) (CEP250 [1]; [7]): 9.25×10^−5 1/S; Kd (CEP250 [1]; [6]): 0.0054 µM; Kd (CEP250 [1]; [7]): 0.00029 µM; ΔG (CEP250 [2]; CEP25011.4 68 μM): −40.75 kJ*mol−mol−1; ΔH (CEP250 [2]; CEP25011.4 68 μM): −49.37 kJ*mol−mol−1; −T*ΔS (CEP250 [2]; CEP25011.4 68 μM): 8.62 kJ*mol−mol−1; ΔG (CEP250 [2]; CEP25029.4 118 μM): −38.41 kJ*mol−mol−1; ΔH (CEP250 [2]; CEP25029.4 118 μM): −52.21 kJ*mol−mol−1; −T*ΔS (CEP250 [2]; CEP25029.4 118 μM): 13.80 kJ*mol−mol−1
CC[C@H](Cc1ccccc1)[C@@H]1/C=C/C/C=C/C[C@@H](C)[C@H](O)[C@@H](C)[C@@H]2CC[C@@H](C)C(=O)C(O)(O2)C(=O)N2CCC[C@H]2C(=O)O1 [F4]	< 1 µM	–	–	–
CC1=C\CC(O)CC(/C(C)=C/C(C)=C/C2C=CC(O)C(O)C2)OC(=O)C2CCCCN2C(=O)CC2(O)OC(C(C)C/C=C/CC(O)\C=C\1)C(C)CC2C (stereo not drawn) [F6]	< 1 µM	0.06 µM	0.141 µM	–
COC1C=C(/C=C/C2OC(=O)C3CCCCN3C(=O)C3(O)OC(CCC(C)C3=O)C(C)C3CC4OC(CC(O)C2C)(O3)C(C)CC4C)CCC1O (stereo not drawn) [F7]	–	0.026 µM	0.12 µM	–
COC1C=C(/C=C/C2OC(=O)C3CCCCN3C(=O)C(=O)C3(O)OC(CCC3C)C(C)C3CC4OC(CC(O)C2C)(O3)C(C)CC4C)CCC1O (stereo not drawn) [F8]	–	0.0106 µM	0.066 µM	–
COC1C(O)CCC(CC(C)C2CCC/C=C/C/C(C)=C/CC3OC(O)(C(=O)C(=O)N4CCCCC4C(=O)O2)C(C)CC3C)C1O (stereo not drawn) [F9]	< 1 µM	0.0003 µM	0.00023 µM	–
CCC1/C=C(\C)C(O)CCC(C)/C=C/C(O)C(C)C2CCC(C)C(O)(O2)C(=O)C(=O)N2CCCCC2C(=O)OC2C=CC(=CC2O)/C=C(\C)C1 (stereo not drawn) [F10]	> 1 µM	0.0211 µM	0.0172 µM	–
CC[C@H](Cc1ccccc1)[C@@H]1CCCCCC[C@@H](C)[C@H](O)[C@@H](C)[C@@H]2CC[C@@H](C)C(=O)C(O)(O2)C(=O)N2CCCCC2C(=O)O1 (stereo partly drawn) [F11, (2S)-1-((4R,7S)-7-((2R,3S,4R,11S,12R)-12-benzyl-3,11-dihydroxy-4-methyltetradecan-2-yl)-2-hydroxy-4-methyl-3-oxooxepane-2-carbonyl)piperidine-2-carboxylic acid C-11 lactone]	–	–	–	ΔG (CEP250 [2]; CEP25011.4 68 μM): −40.36 kJ*mol−mol−1; ΔH (CEP250 [2]; CEP25011.4 68 μM): −47.78 kJ*mol−mol−1; −T*ΔS (CEP250 [2]; CEP25011.4 68 μM): 7.41 kJ*mol−mol−1; ΔG (CEP250 [2]; CEP25029.4 118 μM): −36.74 kJ*mol−mol−1; ΔH (CEP250 [2]; CEP25029.4 118 μM): −58.48 kJ*mol−mol−1; −T*ΔS (CEP250 [2]; CEP25029.4 118 μM): 21.73 kJ*mol−mol−1; buried surface area of CEP250 contributed by FKBP12 (CEP250 [5]): 590 Å^2; total buried surface area of CEP250 (CEP250 [5]): 831 Å^2; total buried surface area of the ternary complex (CEP250 [5]): 1648 Å^2; kon (FKBP12 [4]; read-out: Ka): 567000 M⁻¹ s⁻¹
C/C1=C\C2=CC(O)C(C=C2)OC(=O)C2CCCCN2C(=O)C(=O)C2(O)OC(CCC2C)C(C)C(O)/C=C/C(C)CCC(O)/C(C)=C/C(C)C1 (stereo not drawn) [F12]	> 1 µM	0.0363 µM	0.0212 µM	–
COC1CC(/C=C(C)/C=C(\C)C2CC(O)C/C=C(C)/C=C/C(O)C/C=C/CC(C)C3OC(O)(CC(=O)N4CCCCC4C(=O)O2)C(C)CC3C)C=CC1O (stereo not drawn) [F13]	> 1 µM	0.0336 µM	0.106 µM	–
CCC(/C=C(\C)C(O)CCC(C)/C=C/C(O)C(C)C1CCC(C)C(O)(C(=O)C(=O)N2CCCCC2C(=O)O)O1)C/C(C)=C/C1=CC(O)C(O)C=C1 (stereo not drawn) [F14]	> 1 µM	1.8 µM	–	–
COC1CC(/C=C(C)/C=C(\C)C2CC(O)C/C=C(C)/C=C/C(=O)C/C=C/CC(C)C3OC(O)(CC(=O)N4CCCCC4C(=O)O2)C(C)CC3C)C=CC1O (stereo not drawn) [F16]	> 1 µM	0.0675 µM	0.29 µM	–
C/C1=C\CC2OC(O)(C(=O)C(=O)N3CCCCC3C(=O)OC(C(C)CC3CCC(O)C(O)C3)CCC/C=C/C1)C(C)CC2C (stereo not drawn) [F17]	< 1 µM	0.00026 µM	0.0002 µM	–
CCC(/C=C(\C)C(O)CCC(C)/C=C/C(O)C(C)C1CCC(C)C(O)(C(=O)C(=O)N2CCCCC2C(=O)O)O1)C/C(C)=C/c1ccc(O)c(O)c1 (stereo not drawn) [F18]	< 1 µM	0.229 µM	–	–
COC1CC(CC(C)C2CCC/C=C/C/C(C)=C/CC3OC(O)(C(=O)C(=O)N4CCCCC4C(=O)O2)C(C)CC3C)CCC1O (stereo not drawn) [F19]	< 1 µM	0.00022 µM	–	–
CC[C@H](Cc1cccc(O)c1)[C@@H]1/C=C/C/C=C/C[C@@H](C)[C@H](O)[C@@H](C)[C@@H]2CC[C@@H](C)C(=O)C(O)(O2)C(=O)N2CCCC[C@H]2C(=O)O1 [F20]	< 1 µM	–	–	–
CC[C@H](Cc1cccc(O)c1)[C@@H]1/C=C/C=C/CC[C@@H](C)[C@H](O)[C@@H](C)[C@@H]2CC[C@@H](C)[C@@](O)(O2)C(=O)C(=O)N2CCCC[C@H]2C(=O)O1 [F21]	< 1 µM	–	–	–
CC[C@H](Cc1ccccc1)[C@@H]1/C=C/C=C/CC[C@@H](C)C(=O)[C@@H](C)[C@@H]2CC[C@@H](C)[C@@](O)(O2)C(=O)C(=O)N2CCCC[C@H]2C(=O)O1 [F22]	> 1 µM	–	–	–
CC(=C\C1C=CC(O)C(O)C1)/C=C(\C)C1CC(O)CC1C(C)(O)/C=C/C(O)C/C=C/CC(C)C1OC(O)(CC(=O)N2CCCCC2C(=O)O)C(C)CC1C (stereo not drawn) [F23]	> 1 µM	4.69 µM	–	–

Reference: patent US10039839B2, “Compounds that participate in cooperative binding and uses thereof” (Warp Drive Bio, Inc., priority 2015, dated 2018)
